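Five compound concentrations were applied to cells in 96-well plates for 48 hours; endpoints were derived by simple linear interpolation of the resulting dose-response curve. GI50: concentration for 50% inhibition of growth.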 The source made the active and inactive calls. Cut-off read from the data, not from the text of the source: active = GI50 up to about 1.1 µM and inactive = higher.
Columns and labels:
Assay in all cases: NCI-60 cell line screen, 48 h
COLO 205 = tested on: COLO 205
MCF7 = tested on: MCF7
MDA-N = tested on: MDA-N
TK-10 = tested on: TK-10
MOLT-4 = tested on: MOLT-4
UACC-62 = tested on: UACC-62
OVCAR-4 = tested on: OVCAR-4
HOP-92 = tested on: HOP-92
HCT-116 = tested on: HCT-116
SK-MEL-5 = tested on: SK-MEL-5
U-251 = tested on: U-251
SK-OV-3 = tested on: SK-OV-3
CAKI-1 = tested on: CAKI-1
PC-3 = tested on: PC-3
M14 = tested on: M14
DU-145 = tested on: DU-145
K562 = tested on: K562
MDA-MB-435 = tested on: MDA-MB-435
UO-31 = tested on: UO-31
MDA-MB-231 = tested on: MDA-MB-231
EKVX = tested on: EKVX
CCRF-CEM = tested on: CCRF-CEM
HCC 2998 = tested on: HCC 2998
BT-549 = tested on: BT-549
SR = tested on: SR
OVCAR-8 = tested on: OVCAR-8
IGROV-1 = tested on: IGROV-1
RXF 393 = tested on: RXF 393
NCI-H23 = tested on: NCI-H23
A549 = tested on: A549
SNB-19 = tested on: SNB-19
Malme-3M = tested on: Malme-3M
ACHN = tested on: ACHN
SF-268 = tested on: SF-268
SW-620 = tested on: SW-620
Hs-578T = tested on: Hs-578T
LOX IMVI = tested on: LOX IMVI
A498 = tested on: A498
HL-60 = tested on: HL-60
UACC-257 = tested on: UACC-257
SK-MEL-28 = tested on: SK-MEL-28
NCI/ADR-RES = tested on: NCI/ADR-RES
OVCAR-5 = tested on: OVCAR-5
NCI-H460 = tested on: NCI-H460
HOP-62 = tested on: HOP-62
786-0 = tested on: 786-0
SF-539 = tested on: SF-539
HCT-15 = tested on: HCT-15
SN12C = tested on: SN12C
SK-MEL-2 = tested on: SK-MEL-2
OVCAR-3 = tested on: OVCAR-3
HT-29 = tested on: HT-29
RPMI-8226 = tested on: RPMI-8226
T47D = tested on: T47D
KM12 = tested on: KM12
NCI-H522 = tested on: NCI-H522
NCI-H226 = tested on: NCI-H226
SF-295 = tested on: SF-295
SNB-75 = tested on: SNB-75

C(=C\c1ccccc1)/C=N/c1nc2cc3sc(/N=C/C=C/c4ccccc4)nc3cc2s1
GI50 (COLO 205): 1.06 µM (active)
GI50 (MCF7): 12.6 µM (inactive)
GI50 (MDA-N): > 72.1 µM (inactive)
GI50 (TK-10): > 88.9 µM (inactive)
GI50 (MOLT-4): 7.35 µM (inactive)
GI50 (UACC-62): 99.8 µM (inactive)
GI50 (OVCAR-4): > 100 µM (inactive)
GI50 (HOP-92): > 100 µM (inactive)
GI50 (HCT-116): 28.5 µM (inactive)
GI50 (SK-MEL-5): > 28.9 µM (inactive)
GI50 (U-251): 25 µM (inactive)
GI50 (SK-OV-3): > 100 µM (inactive)
GI50 (CAKI-1): 70.6 µM (inactive)
GI50 (PC-3): > 79.8 µM (inactive)
GI50 (M14): > 100 µM (inactive)
GI50 (DU-145): > 100 µM (inactive)
GI50 (K562): 43.3 µM (inactive)
GI50 (MDA-MB-435): > 100 µM (inactive)
GI50 (UO-31): 34.4 µM (inactive)
GI50 (MDA-MB-231): > 100 µM (inactive)
GI50 (EKVX): 73.1 µM (inactive)
GI50 (CCRF-CEM): 8.47 µM (inactive)
GI50 (HCC 2998): > 100 µM (inactive)
GI50 (BT-549): > 96.2 µM (inactive)
GI50 (SR): 2.95 µM (inactive)
GI50 (OVCAR-8): > 92.3 µM (inactive)
GI50 (IGROV-1): > 63.2 µM (inactive)
GI50 (RXF 393): > 100 µM (inactive)
GI50 (NCI-H23): 42.2 µM (inactive)
GI50 (A549): 12.1 µM (inactive)
GI50 (SNB-19): > 100 µM (inactive)
GI50 (Malme-3M): > 100 µM (inactive)
GI50 (ACHN): > 55.8 µM (inactive)
GI50 (SF-268): > 63.4 µM (inactive)
GI50 (SW-620): > 45.3 µM (inactive)
GI50 (Hs-578T): > 100 µM (inactive)
GI50 (LOX IMVI): 29.9 µM (inactive)
GI50 (A498): > 42.5 µM (inactive)
GI50 (HL-60): 12.1 µM (inactive)
GI50 (UACC-257): > 100 µM (inactive)
GI50 (SK-MEL-28): > 100 µM (inactive)
GI50 (NCI/ADR-RES): > 100 µM (inactive)
GI50 (OVCAR-5): > 78.7 µM (inactive)
GI50 (NCI-H460): 4.16 µM (inactive)
GI50 (HOP-62): 99.3 µM (inactive)
GI50 (786-0): > 100 µM (inactive)
GI50 (SF-539): > 100 µM (inactive)
GI50 (HCT-15): 33.7 µM
GI50 (SN12C): 69.2 µM (inactive)
GI50 (SK-MEL-2): > 100 µM (inactive)
GI50 (OVCAR-3): 24.3 µM (inactive)
GI50 (HT-29): 30.6 µM (inactive)
GI50 (RPMI-8226): > 87.7 µM (inactive)
GI50 (T47D): 47 µM (inactive)
GI50 (KM12): 76.2 µM (inactive)
GI50 (NCI-H522): 18.2 µM (inactive)
GI50 (NCI-H226): 0.813 µM (active)
GI50 (SF-295): > 78 µM (inactive)
GI50 (SNB-75): > 100 µM (inactive)
